# Source: paper PMC13245809 (Nature chemistry, 2026)
# What was measured:
# FABLE [1] = assay: fluorescence titration, single-site binding model; design: species or system synthetic construct
# FABLE [2] = assay: fluorescence titration, global single-site fit; type: binding, synthetic construct
SMILES,Kd (FABLE [1]),Kd (FABLE [2])
CCN(CC)c1ccc2c(C(F)(F)F)cc(=O)oc2c1 [Cou481],5.8 ± 0.7 µM,
"CN(C)c1ccc2c(C(F)(F)F)cc(=O)oc2c1 [Cou485, 7-(dimethylamino)-4-(trifluoromethyl)coumarin]",,27.8 ± 1 µM
O=c1cc(C(F)(F)F)c2cc3c4c(c2o1)CCCN4CCC3 [Cou540a],2 ± 0.1 µM,
